# Data from PMC5775417 (Scientific Reports, 2018).
# “And” between values parts separate entries of the source, which are not always exact repeats. Equal values may be shown once. “Also recorded” adds a separate entry of the source. Read-outs that look alike come from different tables or passages of the source.
# How the values were obtained:
# D80^2.50A c-myc-D2LR = target: T1, D80^2.50A c-myc-D2LR (Homo sapiens, UniProt P14416, D80A); test: [3H]spiperone competition binding, membranes of Flp-In CHO cells; details: for Ki / logα (logarithm of the cooperativity factor between the modulator and [3H]spiperone) / α (cooperativity factor with [3H]spiperone) / Kb: D80A; for Ki: 100 µM GppNHp; for Kb: allosteric ternary complex model
# T1 construct: expressed in transfected cells
# Method: (§1) Flp-In CHO cells (Invitrogen) were transfected with the pOG44 vector encoding Flp recombinase and the pDEST vector encoding the wild-type or mutant c-Myc-D2LR at a ratio of 9:1 using polyethylenimine (Polysciences, Warrington, PA) as transfection reagent. 24 hours after transfection the cells were subcultured and the medium was supplemented with 700 μg/ml hygromycin B as selection agent to obtain cells stably expressing the c-Myc-D2LR. FlpIn CHO cells stably expressing the wild-type or mutant c-Myc-D2LR were grown in Dulbecco’s modified Eagle’s medium (DMEM) supplemented with 10% fetal bovine serum and 200 µg/mL of Hygromycin-B, and maintained at 37 °C in a humidified incubator containing 5% CO2. When cells were approximately 90% confluent, they were harvested and centrifuged (300 g, 3 min, 4 °C). The resulting pellet was resuspended in assay buffer either in the presence (20 mM HEPES, 100 mM NaCl, 6 mM MgCl2, 1 mM EGTA, and 1 mM EDTA, pH 7.4) or absence (20 mM HEPES, 100 mM NMDG, 6 mM MgCl2, 1 mM EGTA, and 1 mM EDTA, pH 7.4) of sodium ions. The centrifugation procedure was repeated. The intact cell pellet was then resuspended in assay buffer and homogenized using a Polytron homogenizer for three 10 s intervals on the maximum setting, with 30 s periods on ice between each burst. The homogenate volume was brought up to 30 mL, the sample was centrifuged (350 g, 5 min, 4 °C), the pellet was discarded, and the supernatant was centrifuged at 30 000 g for 1 hr at 4 °C. The resulting pellet was resuspended in 5 mL of assay buffer, and the protein content was determined using the bicinchoninic acid assay (BCA assay). The homogenate was then separated into 500 µl aliquots and stored at −80 °C until it was required for binding assays.
# (§2) Binding was terminated by fast-flow filtration over GF/B membranes using a Brandel harvester followed by three washes with ice-cold 0.9% NaCl. Bound radioactivity was measured in a Tri-Carb 2900TR liquid scintillation counter (PerkinElmer).
# (§3) Values of α > 1 denote positive cooperativity, values < 1 (but > 0) denote negative cooperativity and values = 1 denote neutral cooperativity.
# (§4) IC50 values obtained from the inhibition curves were converted to Ki values using the Cheng and Prusoff equation[35].
# WT c-myc-D2LR = target: T2, WT c-myc-D2LR (Homo sapiens, UniProt P14416); test: as above; details: for fold loss in affinity in the absence of Na+ vs presence of Na+: WT D2LR, 100 mM NMDG vs 100 mM NaCl; for Ki / Kb / logα (logarithm of the cooperativity factor between the modulator and [3H]spiperone) / α (cooperativity factor with [3H]spiperone): WT
# T2 construct: expressed in transfected cells
# Method: as §1, §2, §3, §4
# E95^2.65A c-myc-D2LR = target: T3, E95^2.65A c-myc-D2LR (Homo sapiens, UniProt P14416, E95A); test: as above; details: for fold decrease in affinity at E95A mutant in the absence of Na+ vs E95A in the presence of Na+: 100 mM NMDG vs 100 mM NaCl; for Ki / logα (logarithm of the cooperativity factor between the modulator and [3H]spiperone) / α (cooperativity factor with [3H]spiperone) / Kb: E95A; for Ki: 100 µM GppNHp; for Kb: allosteric ternary complex model
# T3 construct: expressed in transfected cells
# Method: as §1, §2, §3, §4
# [1] = system: D2R Tyr^7.43 to cysteine mutant; details: cited from earlier work
# [2] = 100 mM NaCl, 0.15 nM [3H]spiperone, read-out: Ki (converted)
# [3] = 100 mM NaCl, 0.15 nM [3H]spiperone, read-out: pKi (converted)
# [4] = 100 mM NMDG (no Na+), 0.15 nM [3H]spiperone, 100 µM GppNHp, read-out: pKi (converted)
# [5] = 100 mM NaCl, 0.15 nM [3H]spiperone, 100 µM GppNHp, read-out: pKi (converted)
# [6] = 100 mM NMDG (no Na+), 0.15 nM [3H]spiperone, read-out: Ki (converted)
# [7] = 100 mM NaCl, 0.5 nM [3H]spiperone
# [8] = 100 mM NMDG (no Na+), 0.5 nM [3H]spiperone
# [9] = 100 mM NMDG (no Na+), 0.15 nM [3H]spiperone
# [10] = 100 mM NaCl, 0.15 nM [3H]spiperone
# [11] = 100 mM NMDG (no Na+), 0.15 nM [3H]spiperone, ND = no inhibition of [3H]spiperone binding detected
# T2 sequence (P14416 whole entry): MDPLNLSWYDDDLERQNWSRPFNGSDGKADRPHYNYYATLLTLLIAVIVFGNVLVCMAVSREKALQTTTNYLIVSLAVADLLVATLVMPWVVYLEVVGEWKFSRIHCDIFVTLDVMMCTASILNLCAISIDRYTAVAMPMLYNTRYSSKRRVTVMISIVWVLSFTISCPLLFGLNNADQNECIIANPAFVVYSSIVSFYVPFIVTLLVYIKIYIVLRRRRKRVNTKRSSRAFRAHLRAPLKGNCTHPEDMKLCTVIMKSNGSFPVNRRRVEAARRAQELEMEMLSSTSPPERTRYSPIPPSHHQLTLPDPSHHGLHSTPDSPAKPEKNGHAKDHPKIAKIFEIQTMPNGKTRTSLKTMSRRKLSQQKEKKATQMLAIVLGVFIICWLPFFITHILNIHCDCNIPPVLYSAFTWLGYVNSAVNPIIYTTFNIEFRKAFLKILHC
# T3 sequence (P14416 whole entry E95A): as the sequence (P14416 whole entry) above, with E95A counted along it
# T1 sequence (P14416 whole entry D80A): as the sequence (P14416 whole entry) above, with D80A counted along it
structure (smiles),measurement,setting,value
"CC(=O)N[C@H]1CC[C@H](CCN2CCc3ccc(C#N)cc3C2)CC1 [MIPS1059, N-((trans)-4-(2-(7-cyano-3,4-dihydroisoquinolin-2(1H)yl)ethyl)cyclohexyl)acetamide]",fold loss in affinity at D80A mutant vs WT,D80^2.50A c-myc-D2LR; 100 mM NaCl,5 fold
same,Ki,"D80^2.50A c-myc-D2LR; 100 mM NMDG (no Na+), 0.15 nM [3H]spiperone, read-out: pKi (converted)",1480 nM
same,Ki,D80^2.50A c-myc-D2LR; [2],1500 nM
same,Ki,D80^2.50A c-myc-D2LR; [3],1510 nM
same,fold loss in affinity in the absence of Na+ vs presence of Na+,WT c-myc-D2LR,6 fold
same,Ki,WT c-myc-D2LR; [4],1740 nM
same,Ki,WT c-myc-D2LR; [5],275 nM
same,Ki,"WT c-myc-D2LR; 100 mM NaCl, complete displacement of [3H]spiperone, read-out: Ki",275 nM
same,fold by which the WT vs E95A difference in affinity is greater in the presence of Na+ than in the absence of Na+,E95^2.65A c-myc-D2LR,2 fold
same,fold decrease in affinity at E95A mutant in the absence of Na+ vs E95A in the presence of Na+,E95^2.65A c-myc-D2LR,5 fold
same,Ki,E95^2.65A c-myc-D2LR; [6],4800 nM
same,Ki,E95^2.65A c-myc-D2LR; [2],1200 nM
same,Ki,E95^2.65A c-myc-D2LR; [3],1150 nM
same,fold loss in affinity at E95A mutant vs WT,E95^2.65A c-myc-D2LR; absence of Na+ (100 mM NMDG),3 fold
same,fold loss in affinity at E95A mutant vs WT,E95^2.65A c-myc-D2LR; presence of Na+ (100 mM NaCl),5 fold
"CCCN1CCc2ccc(C#N)cc2C1 [MIPS1071, 2-propyl-1,2,3,4-tetrahydroisoquinoline-7-carbonitrile]",fold loss in affinity at D80A mutant vs WT,D80^2.50A c-myc-D2LR; 100 mM NaCl,7 fold
same,Ki,D80^2.50A c-myc-D2LR; [6],7200 nM
same,Ki,D80^2.50A c-myc-D2LR; [2],9300 nM
same,fold loss in affinity in the absence of Na+ vs presence of Na+,WT c-myc-D2LR,9 fold
same,Ki,WT c-myc-D2LR; [4],12000 nM
same,Ki,WT c-myc-D2LR; [5],1260 nM
same,Ki,E95^2.65A c-myc-D2LR; [6],7600 nM
same,Ki,E95^2.65A c-myc-D2LR; [3],1260 nM
same,fold loss in affinity at E95A mutant vs WT,E95^2.65A c-myc-D2LR; absence of Na+ (100 mM NMDG),not changed
same,fold loss in affinity at E95A mutant vs WT,E95^2.65A c-myc-D2LR; presence of Na+ (100 mM NaCl),not changed
N#Cc1ccc2c(c1)CN(CC[C@H]1CC[C@H](NC(=O)c3cc4ccncc4[nH]3)CC1)CC2 [MIPS1726],fold loss in affinity at D80A mutant vs WT,D80^2.50A c-myc-D2LR; 100 mM NaCl,> 10 fold
same,logα (logarithm of the cooperativity factor between the modulator and [3H]spiperone),D80^2.50A c-myc-D2LR; [7],−2.13 ± 0.27
same,α (cooperativity factor with [3H]spiperone),D80^2.50A c-myc-D2LR; [7],0.007
same,Kb,D80^2.50A c-myc-D2LR; [7],316 nM
same,Kb,"WT c-myc-D2LR; 0.15 nM [3H]spiperone, radioligand completely displaced, read-out: pKB (converted)",9.77 nM
same,logα (logarithm of the cooperativity factor between the modulator and [3H]spiperone),WT c-myc-D2LR; [8],−2.26 ± 0.39
same,α (cooperativity factor with [3H]spiperone),WT c-myc-D2LR; [8],0.005
same,Kb,"WT c-myc-D2LR; 100 mM NMDG (no Na+), allosteric ternary complex model, 0.5 nM [3H]spiperone, read-out: KB (converted)",398 nM
same,logα (logarithm of the cooperativity factor between the modulator and [3H]spiperone),WT c-myc-D2LR; [7],−1.90 ± 0.08
same,α (cooperativity factor with [3H]spiperone),WT c-myc-D2LR; [7],0.01
same,Kb,"WT c-myc-D2LR; 100 mM NaCl, allosteric ternary complex model, 0.5 nM [3H]spiperone, read-out: KB (converted)",30 nM and 30.2 nM
same,fold by which the WT vs E95A difference in affinity is greater in the presence of Na+ than in the absence of Na+,E95^2.65A c-myc-D2LR,2 fold
same,fold decrease in affinity at E95A mutant in the absence of Na+ vs E95A in the presence of Na+,E95^2.65A c-myc-D2LR,7 fold
same,logα (logarithm of the cooperativity factor between the modulator and [3H]spiperone),E95^2.65A c-myc-D2LR; [8],−1.89 ± 0.31
same,α (cooperativity factor with [3H]spiperone),E95^2.65A c-myc-D2LR; [8],0.01
same,Kb,E95^2.65A c-myc-D2LR; [8],812 nM
same,logα (logarithm of the cooperativity factor between the modulator and [3H]spiperone),E95^2.65A c-myc-D2LR; [7],−1.91 ± 0.12
same,α (cooperativity factor with [3H]spiperone),E95^2.65A c-myc-D2LR; [7],0.01
same,Kb,E95^2.65A c-myc-D2LR; [7],123 nM
same,fold loss in affinity at E95A mutant vs WT,E95^2.65A c-myc-D2LR; absence of Na+ (100 mM NMDG),2 fold
same,fold loss in affinity at E95A mutant vs WT,E95^2.65A c-myc-D2LR; presence of Na+ (100 mM NaCl),4 fold
N#Cc1ccc2c(c1)CN(CC[C@H]1CC[C@H](NC(=O)c3cc4cccc(F)c4[nH]3)CC1)CC2 [MIPS1868],fold loss in affinity at D80A mutant vs WT,D80^2.50A c-myc-D2LR; 100 mM NaCl,6 fold
same,logα (logarithm of the cooperativity factor between the modulator and [3H]spiperone),D80^2.50A c-myc-D2LR; [9],−0.87 ± 0.12
same,α (cooperativity factor with [3H]spiperone),D80^2.50A c-myc-D2LR; [9],0.13
same,Kb,D80^2.50A c-myc-D2LR; [9],468 nM
same,α (cooperativity factor with [3H]spiperone),D80^2.50A c-myc-D2LR; [10],0.23
same,logα (logarithm of the cooperativity factor between the modulator and [3H]spiperone),"D80^2.50A c-myc-D2LR; 100 mM NaCl, 0.15 nM [3H]spiperone, ND = no inhibition of [3H]spiperone binding detected",−0.62 ± 0.06
same,Kb,D80^2.50A c-myc-D2LR; [10],631 nM
same,fold loss of negative cooperativity at D80A mutant vs WT,D80^2.50A c-myc-D2LR; cooperativity with [3H]spiperone,4 fold and 6 fold
same,fold loss in affinity in the absence of Na+ vs presence of Na+,WT c-myc-D2LR,6 fold and 5 fold
same,α (cooperativity factor with [3H]spiperone),WT c-myc-D2LR; [9],0.03
same,logα (logarithm of the cooperativity factor between the modulator and [3H]spiperone),WT c-myc-D2LR; [11],−1.48 ± 0.12
same,Kb,"WT c-myc-D2LR; 100 mM NMDG (no Na+), allosteric ternary complex model, 0.15 nM [3H]spiperone, read-out: KB (converted)",631 nM
same,logα (logarithm of the cooperativity factor between the modulator and [3H]spiperone),WT c-myc-D2LR; [10],−1.45 ± 0.12
same,α (cooperativity factor with [3H]spiperone),WT c-myc-D2LR; [10],0.04
same,Kb,"WT c-myc-D2LR; 100 mM NaCl, allosteric ternary complex model, 0.15 nM [3H]spiperone, read-out: KB (converted)",100 nM
same,fold by which the WT vs E95A difference in affinity is greater in the presence of Na+ than in the absence of Na+,E95^2.65A c-myc-D2LR,2 fold
same,fold decrease in affinity at E95A mutant in the absence of Na+ vs E95A in the presence of Na+,E95^2.65A c-myc-D2LR,3 fold
same,α (cooperativity factor with [3H]spiperone),E95^2.65A c-myc-D2LR; [9],0.06
same,logα (logarithm of the cooperativity factor between the modulator and [3H]spiperone),E95^2.65A c-myc-D2LR; [11],−1.24 ± 0.16
same,Kb,E95^2.65A c-myc-D2LR; [9],617 nM
same,logα (logarithm of the cooperativity factor between the modulator and [3H]spiperone),E95^2.65A c-myc-D2LR; [10],−1.39 ± 0.11
same,α (cooperativity factor with [3H]spiperone),E95^2.65A c-myc-D2LR; [10],0.04
same,Kb,E95^2.65A c-myc-D2LR; [10],212 nM
same,fold loss in affinity at E95A mutant vs WT,E95^2.65A c-myc-D2LR; absence of Na+ (100 mM NMDG),no significant difference; also recorded: no additional effect
same,fold loss in affinity at E95A mutant vs WT,E95^2.65A c-myc-D2LR; presence of Na+ (100 mM NaCl),2 fold
CN1CN(c2ccccc2)C2(CCN(CCCC(=O)c3ccc(F)cc3)CC2)C1=O [N-methyl-spiperone],fold decrease in affinity upon mutation of Tyr^7.43 to cysteine,[1],3 fold
CCN1CCCC1CNC(=O)c1cc(S(N)(=O)=O)ccc1OC (stereo not shown) [sulpiride],fold decrease in affinity upon mutation of Tyr^7.43 to cysteine,[1],185 fold
